In patent US20100249093A1, “Substituted Heteroarylpiperidine Derivatives As Melanocortin-4 Receptor Modulators” (SANTHERA PHARMACEUTICALS (SCHWEIZ) AG, priority 2007, published 2010):

Tests used:
[1] = molecular target: T1, human melanocortin-4 receptor (MC-4R) (Homo sapiens, UniProt P32245); assay: Membrane binding assay: competition with fluorescence labeled NDP-alpha-MSH, fluorescence polarization; conditions: HEK293 cell membrane preparations expressing human MC-4R, read-out: hMC-4R binding assay IC50
T1 construct: expressed in transfected cells; host or cells: HEK293

[2] = molecular target: T1, human melanocortin-4 receptor (MC-4R); assay: Functional assay: agonistic activity, cAMP production in membrane preparations compared with NDP-alpha-MSH, fluorescence polarization; assay type: biochemical; conditions: for Emax: cAMP produced compared to stimulation with NDP-alpha-MSH, read-out: % activation functional assay; for EC50: cAMP production, membrane preparations from HEK293 cells expressing human MC-4R, read-out: hMC-4R functional assay EC50

T1 sequence (P32245 whole entry): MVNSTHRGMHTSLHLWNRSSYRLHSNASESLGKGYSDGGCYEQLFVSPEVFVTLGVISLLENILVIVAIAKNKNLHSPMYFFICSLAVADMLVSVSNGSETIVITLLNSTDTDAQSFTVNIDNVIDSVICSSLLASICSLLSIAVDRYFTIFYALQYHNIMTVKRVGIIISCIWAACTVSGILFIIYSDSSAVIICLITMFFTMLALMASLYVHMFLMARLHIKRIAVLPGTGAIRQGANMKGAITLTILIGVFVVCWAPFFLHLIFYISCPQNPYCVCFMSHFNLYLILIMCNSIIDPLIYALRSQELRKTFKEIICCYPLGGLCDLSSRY

With `CC[C@H](COc1cccnc1C1CCN(C(=O)[C@@H](Cc2ccc(Cl)cc2Cl)NC(=O)N2CC[C@H](CO)C2)CC1)N(C)C` [Example 114] the IC50 [1] was ≤ 100 nM and the Emax [2] was -3%.

With `COCCN(C)C(=O)N[C@H](Cc1ccc(Cl)cc1Cl)C(=O)N1CCC(c2ncccc2O[C@H]2CCCN(C)C2)CC1` [Example 142] the IC50 [1] was ≤ 100 nM, the Emax [2] was -32% and the EC50 [2] was ≤ 100 nM.

For `CC[C@H](COc1cccnc1C1CCN(C(=O)[C@@H](Cc2ccc(Cl)cc2Cl)NC(=O)N2CCC(O)CC2)CC1)N1CCCC1` [Example 96], the IC50 [1] was ≤ 100 nM and the Emax [2] was 0%.

`CN1CC[C@H](COc2cccnc2C2CCN(C(=O)[C@@H](Cc3ccc(Cl)cc3Cl)NC(=O)N3CCCC3)CC2)C1` [Example 51] gave an IC50 [1] of 100 to 1000 nM and an Emax [2] of 0%.

`CN1CC[C@H](Oc2cccnc2C2CCN(C(=O)[C@@H](Cc3ccc(Cl)cc3Cl)NC(=O)N3CCCC3)CC2)C1` [Example 42] was tested, and the IC50 [1] was 100 to 1000 nM and the Emax [2] was -1%.

With `CC(C)[C@H](COc1cccnc1C1CCN(C(=O)[C@@H](Cc2ccc(Cl)cc2Cl)NC(=O)N2CCCC2)CC1)N(C)C` [Example 30] the IC50 [1] was ≤ 100 nM and the Emax [2] was -8%.

For `CC[C@H](COc1cccnc1C1CCN(C(=O)[C@@H](Cc2ccc(Cl)cc2Cl)NC(=O)N2CC(O)(C3CC3)C2)CC1)N(C)C` [Example 123], the IC50 [1] was ≤ 100 nM and the Emax [2] was 3%.

With `Cc1ccc(C2CCN(C(=O)[C@@H](Cc3ccc(Cl)cc3Cl)NC(=O)N3CCCC3)CC2)c(NCCN2CCCC2)n1` [Example 1] the IC50 [1] was ≤ 100 nM and the Emax [2] was 0%.

With `CC[C@H](COc1cccnc1C1CCN(C(=O)[C@@H](Cc2ccc(Cl)cc2Cl)NC(=O)N2CC(O)(C(F)(F)F)C2)CC1)N(C)C` [Example 129] the IC50 [1] was ≤ 100 nM and the Emax [2] was -5%.

`CC[C@H](COc1cccnc1C1CCN(C(=O)[C@@H](Cc2ccc(Cl)cc2Cl)NC(=O)N(C)C2COC2)CC1)N(C)C` [Example 133] was tested, and the IC50 [1] was ≤ 100 nM and the Emax [2] was -6%.

`CC[C@H](COc1cccnc1C1CCN(C(=O)[C@@H](Cc2ccc(Cl)cc2Cl)NC(=O)N2CCC[C@H]2C(C)(C)O)CC1)N(C)C` [Example 126] was tested, and the IC50 [1] was ≤ 100 nM and the Emax [2] was -8%.

`CN1CCC[C@H]1COc1cccnc1C1CCN(C(=O)[C@@H](Cc2ccc(Cl)cc2Cl)NC(=O)N2CCCC2)CC1` [Example 44] gave an IC50 [1] of 100 to 1000 nM and an Emax [2] of -4%.

For `CC[C@@H](CN1CCCC1)Oc1cccnc1C1CCN(C(=O)[C@@H](Cc2ccc(Cl)cc2Cl)NC(=O)N2CCCC2)CC1` [Example 17], the IC50 [1] was ≤ 100 nM and the Emax [2] was 0%.

`CC[C@H](COc1cc(C)cnc1C1CCN(C(=O)[C@@H](Cc2ccc(Cl)cc2Cl)NC(=O)N2CCCC2)CC1)N(C)C` [Example 27] was tested, and the IC50 [1] was ≤ 100 nM and the Emax [2] was 0%.

For `CC[C@@H](CN(C)C)Oc1cccnc1C1CCN(C(=O)[C@@H](Cc2ccc(Cl)cc2Cl)NC(=O)N(C)CC)CC1` [Example 135], the IC50 [1] was ≤ 100 nM and the Emax [2] was 3%.

`CC[C@@H](CN1CCCC1)Oc1ccncc1C1CCN(C(=O)[C@@H](Cc2ccc(Cl)cc2Cl)NC(=O)N2CCCC2)CC1` [Example 12] was tested, and the IC50 [1] was ≤ 100 nM and the Emax [2] was 0%.

In the case of `CC[C@H](COc1cccnc1C1CCN(C(=O)[C@@H](Cc2ccc(Cl)cc2Cl)NC(=O)N2C[C@H]3C[C@H]3C2)CC1)N1CCCC1` [Example 97], the IC50 [1] is reported as ≤ 100 nM and the Emax [2] is reported as 8%.

`Cc1ccc(C2CCN(C(=O)[C@@H](Cc3ccc(Cl)cc3F)NC(=O)N3CCCC3)CC2)c(N2CCN(C)CC2)n1` [Example 65] was tested, and the IC50 [1] was ≤ 100 nM and the Emax [2] was 0%.

`CC[C@H]1CN(C)CCN1Cc1cccnc1C1CCN(C(=O)[C@@H](Cc2ccc(Cl)cc2Cl)NC(=O)N2CCCC2)CC1` [Example 50] was tested, and the IC50 [1] was ≤ 100 nM and the Emax [2] was 0%.

`O=C(N[C@H](Cc1ccc(Cl)cc1Cl)C(=O)N1CCC(c2ncccc2O[C@H]2CN3CCC2CC3)CC1)N1CCCC1` [Example 26] showed an IC50 [1] of 100 to 1000 nM and an Emax [2] of 0%.

In the case of `CN1CCN(C)CC(Oc2cccnc2C2CCN(C(=O)[C@@H](Cc3ccc(Cl)cc3Cl)NC(=O)N3CCCC3)CC2)C1` [Example 56], the IC50 [1] is reported as ≤ 100 nM and the Emax [2] is reported as -5%.

In the case of `CC[C@H](COc1cccnc1C1CCN(C(=O)[C@@H](Cc2ccc(C)cc2C)NC(=O)N2CCCC2)CC1)N1CCCC1` [Example 70], the IC50 [1] is reported as ≤ 100 nM and the Emax [2] is reported as -2%.

For `CC[C@H](COc1cc(F)cnc1C1CCN(C(=O)[C@@H](Cc2ccc(Cl)cc2Cl)NC(=O)N2CCCC2)CC1)N(C)C` [Example 60], the IC50 [1] was ≤ 100 nM and the Emax [2] was -12%.

For `CC[C@H](COc1nc(C)ncc1C1CCN(C(=O)[C@@H](Cc2ccc(Cl)cc2Cl)NC(=O)N2CCCC2)CC1)N(C)C` [Example 64], the IC50 [1] was ≤ 100 nM and the Emax [2] was 13%.

In the case of `CC[C@@H](CN(C)C)Oc1cccnc1C1CCN(C(=O)[C@@H](Cc2ccc(Cl)cc2Cl)NC(=O)N2CCCC2)CC1` [Example 32], the IC50 [1] is reported as ≤ 100 nM, the Emax [2] is reported as 36% and the EC50 [2] is reported as > 1000 nM.

For `CC[C@H](COc1cccnc1C1CCN(C(=O)[C@@H](Cc2ccc(Cl)cc2Cl)NC(=O)N2C[C@@H](C)O[C@@H](C)C2)CC1)N1CCCC1` [Example 93], the IC50 [1] was ≤ 100 nM and the Emax [2] was 0%.

`CC[C@H](COc1cccnc1C1CCN(C(=O)[C@@H](Cc2ccc(Cl)cc2Cl)NC(=O)N2CC[C@H](O)C2)CC1)N1CCCC1` [Example 89] was tested, and the IC50 [1] was ≤ 100 nM and the Emax [2] was 0%.

With `C[C@@H](CN(C)C)Oc1cccnc1C1CCN(C(=O)[C@@H](Cc2ccc(Cl)cc2Cl)NC(=O)N2CCCC2)CC1` [Example 15] the IC50 [1] was ≤ 100 nM and the Emax [2] was 0%.

In the case of `CC[C@@H](CN1CCCC1)Oc1nccnc1C1CCN(C(=O)[C@@H](Cc2ccc(Cl)cc2Cl)NC(=O)N2CCCC2)CC1` [Example 63], the IC50 [1] is reported as ≤ 100 nM and the Emax [2] is reported as 0%.

`Cc1cnc(N(C)CCN2CCCC2)c(C2CCN(C(=O)[C@@H](Cc3ccc(Cl)cc3Cl)NC(=O)N3CCCC3)CC2)c1` [Example 3] showed an IC50 [1] of 100 to 1000 nM and an Emax [2] of 0%.

`CC[C@H](COc1cccnc1C1CCN(C(=O)[C@@H](Cc2ccc(Cl)cc2Cl)NC(=O)N2CCC[C@H]2CO)CC1)N(C)C` [Example 106] was tested, and the IC50 [1] was ≤ 100 nM and the Emax [2] was -1%.
